According to the NIST ThermoML archive (doi:10.1016/j.tca.2018.11.010):
Numbers after ± are expanded uncertainties.

Experiment: wn = mass fraction of the nth substance listed
Conditions: 298 K; 100 kPa; Liquid; Laser flash apparatus; w1 = 0.9

CCCCCCCC/C=C\CCCCCCCC(=O)O [(Z)-9-octadecenoic acid] + CCCCCCCCCCCCCC(=O)O
thermal conductivity: 0.2513 ± 0.0057 W/m/K
